The results in this text go back to patent US9150530B2, “Esters of 4, 9-dihydroxy-naphtho [2, 3-b] furans for disease therapies” (Zhoushan Haizhongzhou Xinsheng Pharmaceuticals Co., Ltd., priority 2011, dated 2015).

In one series the test system is Hela. Put plainly: Cell viability determination (MTT), Hela. The format is cell-based. To be noted: Homo sapiens, cervical cancer, 48 hour incubation, read-out: Drug concentrations for 50% cell viability (IC50). From the text:
(§1) Cell Culture: A549, DLD1, SW480, LOVO, HT-29, Hela, U-20S, MES-SA, SK-MEL-28, Panc-1, DU-145, CNE, U251, Eca-109, MGC80-3, QGY-7701, BEL-7404, PLC/PRF/5, Huh-7, and SGC-7901 cells were maintained in Dulbecco's Modified Eagle Medium (DMEM) (imported from Invitrogen, Carlsbad, Calif., USA) supplemented with 10% fetal bovine serum (FBS) (Si Ji Qing, Hangzhou, China) and 1% penicillin/streptomycin/amphotericin B (imported from Invitrogen, Carlsbad, Calif., USA).
(§2) Cell Viability Determination: Popular MTT method (Archives of Biochemistry and Biophysics, 1993, 303: 474-482) was used to screen the in vitro effects of the invented drugs. Briefly, 5000 to 10000 cells were inoculated per well in a 96-well plate. After overnight incubation, drug was added to the wells at final concentration of 10 μM, […], 2.5 μM, 1.25 μM, or 1 μM, 0.75 μM, 0.5 μM and 0.25 μM in complete culture medium. Each dose level covered 4 equivalent wells. After 48 hour incubation, one tenth volume of 5 mg/mL MTT (thiazolyl blue tetrazolium bromide, Sigma-Aldrich) stock solution was added, and incubation was continued for 2 hours. Then medium was removed and 100 μL of isopropanol solution comprising 86% isopropanol, 4% aqueous 1 N HCl and 10% aqueous SDS solution (10% in concentration) was added. The absorbance of each well at 570 nm wavelength was measured by a micro-plate reader after gentle shaking for 20 minutes. Drug concentrations of 50% cell viability (IC50) were calculated by LOGIT method.

Another series has as its system SK-MEL-28. Put plainly: Cell viability determination (MTT), SK-MEL-28. In kind it is cell-based. The conditions noted are these: Homo sapiens, SK-MEL-28, malignant melanoma, 48 hour incubation, read-out: Drug concentrations for 50% cell viability (IC50).
Description: as §1, §2

For another series, the system named is Panc-1. Put plainly: Cell viability determination (MTT), Panc-1. The conditions noted are these: Homo sapiens, Panc-1, pancreatic cancer, 48 hour incubation, read-out: Drug concentrations for 50% cell viability (IC50). The format is cell-based.
Description: as §1, §2

In another series the test system is DU-145. Put plainly: Cell viability determination (MTT), DU-145. In kind it is cell-based. To be noted: Homo sapiens, DU-145, prostate cancer, 48 hour incubation, read-out: Drug concentrations for 50% cell viability (IC50).
Description: as §1, §2

Another series concerns CNE. Briefly: Cell viability determination (MTT), CNE. In kind it is cell-based. The conditions noted are these: Homo sapiens, nasopharyngeal cancer, 48 hour incubation, read-out: Drug concentrations for 50% cell viability (IC50).
Description: as §1, §2

For another series, the system named is Eca-109. Put plainly: Cell viability determination (MTT), Eca-109. To be noted: Homo sapiens, Eca-109, esophageal cancer, 48 hour incubation, read-out: Drug concentrations for 50% cell viability (IC50). In kind it is cell-based.
Description: as §1, §2

In a further series the test system is MGC80-3. Put plainly: Cell viability determination (MTT), MGC80-3. The format is cell-based. The conditions noted are these: Homo sapiens, MGC-803, MGC80-3, stomach cancer, 48 hour incubation, read-out: Drug concentrations for 50% cell viability (IC50).
Description: as §1, §2

Series [1] in a line: Metabolism in biological fluid (human whole blood, cancer cell lysate, liver microsomes, mouse oral uptake), HPLC. In kind it is in vitro ADME. The conditions noted are these: liver microsomes or mouse oral uptake system, 20 μM, 37° C. As for the experimental part: Second, a major metabolite found after incubation of compound I, III, IV, VI or XIII in biological fluid, such as human whole blood, or cancer cell lysate, or liver microsomes, or mouse oral uptake system, is compound XII (FIG. 3). Similarly, a major metabolite found after incubation of compound V, VII or XIV in biological fluid is 2-(1-hydroxy-n-propyl)-naphtho[2,3-b]furan-4,9-dione (data not shown). Reduction of the position 2 substituent carbonyl group is part of quinone redox reaction as evidenced by the β-lapachone effect on the formation of compound XII in the compound XIII incubation mixture of human whole blood (part D of FIG. 3). The possible reaction mechanism is proposed as shown in scheme 7, in which the two electron reduction could be NQ01 catalyzed reduction or two successive cytochrome b5 reductase or p450 reductase catalyzed reaction. As substrate of these enzymes, β-lapachone could compete for the two electron or single electron reaction and thus reduced formation of the metabolism product.
Crystalline or amorphous solid of compound was mixed with excipient and suspended in 0.5% carboxymethylcellulose (CMC) solution in a mortar. Then the mixture was orally administered into ICR mouse at the predetermined dosage. At the predetermined time point, blood was drawn from the mouse and stored in the vial containing heparin. The blood samples were centrifuged at 6,000 rpm for 10 min, and plasmas were separated. To each plasma sample, 9 times volume of acetonitrile/methyl trifluoromethanesulfonate (1000:1) or acetonitrile/concentrated HCl (1000:1) was added. The resulting mixtures were vortexed and incubated in dry ice for 30 minutes or in −20° C. freezer for 3 hours, then centrifuged, and supernatants were separated for HPLC analysis using gradient B.
The biological systems for in vitro metabolism study include: human whole blood stabilized with sodium citrate; cancer cell lysate (obtained using freeze-thaw method, 10 mg/ml in protein concentration for use); liver microsomes with NADPH generation system (prepared according to the protocol provided by iPhase Pharma, Beijing, China);
10 mM of a compound of formula I or its analog or compound XIII in DMSO (however, compound VI was in DMF) was added into the biological system to a final concentration of 20 μM. The mixtures were incubated at 37° C. for predetermined time. To each sample, then 9 times volume of acetonitrile was added. The resulting mixtures were vortexed and incubated in dry ice for 30 minutes or in −20° C. freezer for 3 hours, then centrifuged, and supernatants were separated for HPLC analysis using gradient B.
For orientation: Microsomes from liver hold many membrane-bound enzymes, among them those of drug oxidation.

For `CC(=O)Oc1c2ccccc2c(OC(=O)CNC(=O)OC(C)(C)C)c2oc(C(C)=O)cc12` [compound IV, 2-acetyl-4-acetoxy-9-[(tert-butoxycarbonyl)amino]acetoxy-naphtho[2,3-b]furan], the IC50 in the series on Hela is 860 nM; in the series with SK-MEL-28, 250 to 500 nM; with Panc-1, 870 nM; in the series with DU-145, 250 to 500 nM; with CNE, 1330 nM; in the series on Eca-109, 1630 nM. Moreover, in the series with MGC80-3, the IC50 is 1220 nM. Further, the “Major metabolite found after incubation in biological fluid” value in series [1] is on record as “compound XII”.
